This assay deals with T1, E. coli DdlB enzyme (D-alanine:D-alanine ligase) (Escherichia coli, UniProt P07862).
T1 construct: made in house; host or cells: E. coli
Briefly: biochemical. Particulars: read-out: DdlB RA; for remaining activity at 2400 µM: tested concentration 2.4 mM; for remaining activity at 2200 µM: tested concentration 2.2 mM; for remaining activity at 1700 µM: tested concentration 1.7 mM; for remaining activity at 2500 µM: tested concentration 2.5 mM; for remaining activity at 2100 µM: tested concentration 2.1 mM; for remaining activity at 2300 µM: tested concentration 2.3 mM; for remaining activity at 2000 µM: tested concentration 2.0 mM; for remaining activity at 3000 µM: tested concentration 3.0 mM; for remaining activity at 1800 µM: tested concentration 1.8 mM; for remaining activity at 1900 µM: tested concentration 1.9 mM.

The mark [1] stands for this setting: residual activity of DdlB, fragment library screening.

Remaining activity data for 78 compounds are collected here from publication PMC9718554, “Discovery of a fragment hit compound targeting D-Ala:D-Ala ligase of bacterial peptidoglycan biosynthesis” (Journal of Enzyme Inhibition and Medicinal Chemistry, 2022).

Molecules are shown by their SMILES. Where two headings read alike, the source gives them in different places.

`C#CC(=O)NC(C)c1c(C)nn(C)c1C` (stereo not drawn) [Compound T001-1381]: the remaining activity at 2400 µM was found to be 87%.
Take `CCOc1c(N2CCC(C)CC2)c(=O)c1=O` [Compound K906-2369]: the remaining activity at 2200 µM was determined as 71%.
On to `CCn1cnnc1CC1CCNC1` (stereo not drawn) [Compound P936-0678], for which the remaining activity at 3300 µM (residual activity of DdlB, fragment library screening, tested concentration 3.3 mM) is 90%.
`NS(=O)(=O)c1ccc(CNC(=O)c2ccncc2)cc1` [Compound Y205-1594]: the remaining activity at 1700 µM is 102%.
On to `CNS(=O)(=O)c1ccc2c(c1)CCN2C(C)=O` [Compound Y300-1529], for which the remaining activity at 2400 µM came out at 90%.
As to `CC1(C)CC(O)(c2cc(C(=O)O)no2)CCO1` (stereo not drawn) [Compound 8019-4352], the remaining activity at 2500 µM came out at 72%.
As to `C[C@H](NC(=O)[C@H](C)n1nnc2ccccc2c1=O)C(=O)O` [Compound Y040-2749], the remaining activity at 1700 µM (fragment library screening) came out at 92%.
For `Cc1ccc(C)c(C(=O)N(C)CC2CCOC2)c1` (stereo not drawn) [Compound S213-1736], the remaining activity at 2400 µM was determined as 99%.
Consider `O=C1C=C(O)CO1` [Compound 8020-5738], for which the remaining activity at 5000 µM (tested concentration 5.0 mM) came to 98%.
With `N#Cc1ccc(F)c(F)c1` [FLD163], the remaining activity at 2500 µM under setting [1] is 95%.
As to `Cc1cccnc1C(=O)N1CCC2(CC1)CCC2(C)O` (stereo not drawn) [Compound S971-1225], the remaining activity at 2200 µM (residual activity) stood at 97%.
Consider `CCCN(C)C(=O)Cc1c[nH]c2ncccc12` [Compound M508-0627], for which the remaining activity at 2200 µM (residual activity) was 86%.
With `CCCOc1ccc(C(=O)NCC(=O)O)cc1` [Compound 8007-0359], the remaining activity at 2100 µM was determined as 86%.
With `O=C(O)C1CCCCN1S(=O)(=O)c1ccc(F)cc1` (stereo not drawn) [Compound C155-0476], where the note is “residual activity”, the remaining activity at 2100 µM amounted to 90%.
Regarding `OCc1noc(C2CC2)n1` [Compound 8020-1925], the remaining activity at 3900 µM (residual activity of DdlB, fragment library screening, tested concentration 3.9 mM) is 98%.
For the compound `OCc1ccc(Br)cc1` [FLD122], the remaining activity at 2500 µM under setting [1] turned out to be 96%.
`CCS(=O)(=O)N1CCCN(C(=O)C2CC2)CC1` [Compound Z603-0719]: the remaining activity at 2300 µM was 98%.
With `O=C(O)c1cnc(-c2ccc(F)cc2)nc1` [Compound 8020-5433], the remaining activity at 2300 µM is 81%.
As for `N#Cc1ccccc1Br` [FLD114], the remaining activity at 2500 µM under setting [1] came to 99%.
Consider `O=C1CNC(=S)N1` [FLD022], for which the remaining activity at 2500 µM under setting [1] came out at 98%.
With `CC(=O)N1CCC2(CCc3ccc(O)cc3O2)CC1` [Compound Y041-9811], the remaining activity at 2100 µM is 94%.
Consider `Clc1ncnc2[nH]ccc12` [FLD154], for which, under setting [1], the remaining activity at 2500 µM was 95%.
As to `Nc1ccc2ccccc2c1` [FLD074], the remaining activity at 2500 µM under setting [1] stood at 89%.
Consider `Cc1nc2ccccc2c(O)c1S(=O)(=O)O` [Compound L150-1119], for which the remaining activity at 2100 µM is 90%.
Turning to `Cn1nc(CCC(=O)N2CCNC(=O)C2)c2c1CCOC2` [SD48-0069], the remaining activity at 2100 µM (residual activity) was 99%.
Turning to `COC(=O)c1sc(C(=O)OC)c(O)c1O` [Compound 8011-7913], for the setting “residual activity”, the remaining activity at 2200 µM was 86%.
On to `O=C(O)CCC(=O)NC1C2CC3CC(C2)CC1C3` (stereo not drawn) [Compound Y206-2966], for which the remaining activity at 2000 µM was determined as 90%.
Turning to `O=C(c1ccoc1)N1C[C@@H](CO)[C@H](c2ccncc2)C1` [Compound S824-2534], the remaining activity at 2200 µM (residual activity) is 95%.
For the compound `Cc1cc(C)n(C(=O)C2CC=CCC2C(=O)O)n1` (stereo not drawn) [Compound Y203-9842], the remaining activity at 2000 µM came out at 90%.
For the compound `O=C(O)c1cc(-c2ccc3c(c2)OCO3)on1` [Compound R314-0020], the remaining activity at 2100 µM (residual activity) came out at 114%.
With `O=C(Nc1ccccn1)NC1CCS(=O)(=O)C1` (stereo not drawn) [Compound 7098-0576], the remaining activity at 2400 µM was found to be 87%.
With `COc1ncccc1S(=O)(=O)N1CCCCC1` [Compound C200-8263], the remaining activity at 2300 µM was 100%.
For the compound `Cc1cccc(-c2ccnc3c(C(=O)O)cnn23)c1` [Compound Y502-0116], the remaining activity at 2000 µM (fragment library screening) turned out to be 6%.
For the compound `CC(C)CNC(=O)Cc1c[nH]c2ncccc12` [Compound M508-0619], under “residual activity”, the remaining activity at 2200 µM is 94%.
In the case of `CC(C)n1ncc(C(N)=O)c1N` [Compound 8014-2120], the remaining activity at 3000 µM under setting [1] came out at 92%.
Regarding `CC(C)(C)c1cc(C(=O)O)nn1-c1ccccc1` [Compound 8012-7831], for the setting “residual activity”, the remaining activity at 2000 µM amounted to 102%.
With `CC(=O)Nc1ccc(S(N)(=O)=O)cc1` [Compound 0405-0094], the remaining activity at 2300 µM was 87%.
As to `OB1OCc2ccccc21` [Compound 8008-5589], the remaining activity at 3700 µM (tested concentration 3.7 mM) was 85%.
Regarding `Cc1ccc(CS(=O)(=O)N2CCc3ccccc32)cc1` [Compound Y300-3078], under “residual activity”, the remaining activity at 2100 µM stood at 112%.
Regarding `O=C(Nc1ccc2[nH]c(=O)oc2c1)c1ccc(F)cc1` [Compound G434-0256], the remaining activity at 1800 µM came out at 74%.
In the case of `O=C(O)C(Cc1ccccc1)Nc1ncccn1` (stereo not drawn) [Compound Y042-3157], the remaining activity at 2100 µM stood at 90%.
As to `O=C(O)CCCC(=O)N1CCN(c2ccccc2)CC1` [Compound Y204-6418], the remaining activity at 1800 µM (fragment library screening) was found to be 99%.
`O=C(O)c1cccnc1F` [FLD134]: the remaining activity at 2500 µM under setting [1] is 98%.
For the compound `Cc1nc(O)[nH]c(=O)c1S(=O)(=O)N1CCCCC1` [Compound D668-0306], the remaining activity at 1800 µM (residual activity) is 89%.
Turning to `CN1CCN(C2CC(=O)N(c3ccccc3)C2=O)CC1` (stereo not drawn) [Compound 5593-0294], the remaining activity at 2000 µM (residual activity) was determined as 99%.
With `COC(=O)c1cscc1N` [FLD143], the remaining activity at 2500 µM under setting [1] worked out at 92%.
For the compound `O=c1c(O)c(N2CCc3ccccc3C2)c1=O` [Compound G317-0491], the remaining activity at 2200 µM worked out at 90%.
With `N#Cc1ccccc1OCC(=O)O` [Compound C790-0277], the remaining activity at 2800 µM (tested concentration 2.8 mM) came to 96%.
`CCn1ncc(Cn2cc(Cl)c(N)n2)c1C` [Compound Y504-8851]: the remaining activity at 2100 µM was found to be 96%.
Regarding `COc1nc(Cl)nc(OC)n1` [FLD049], under setting [1], the remaining activity at 2500 µM stood at 95%.
Regarding `CC1=NCCS1` [FLD187], under setting [1], the remaining activity at 2500 µM is 100%.
For the compound `O=S(=O)(O)c1ccc(O)c2ncccc12` [Compound 4311-2142], the remaining activity at 2200 µM came to 96%.
For the compound `CN1CCN(C(=O)Nc2ccccc2C(=O)O)CC1` [Compound Y043-2499], the remaining activity at 1900 µM (residual activity) was determined as 92%.
On to `COc1ccc(C(O)(C(=O)O)C(F)(F)F)cc1OC` (stereo not drawn) [Compound 8013-2786], for which the remaining activity at 1800 µM (residual activity) was 94%.
`Cn1c(=O)cnc2ccc(N3CCCCCC3)nc21` [Compound Z601-8402]: the remaining activity at 2300 µM came out at 83%.
Regarding `Cc1cc(N)n(-c2ccc(S(=O)(=O)O)cc2)n1` [Compound 2991-0739], the remaining activity at 2000 µM turned out to be 97%.
`OCCc1ccccc1C(F)(F)F` [FLD177]: the remaining activity at 2500 µM under setting [1] was found to be 100%.
On to `Cn1nc(CCC(=O)NC2CCCC2)c2c1CCOC2` [SD48-0064], for which the remaining activity at 2200 µM (residual activity) came to 102%.
In the case of `Nc1ncnc2[nH]ccc12` [FLD144], under setting [1], the remaining activity at 2500 µM turned out to be 94%.
As to `CN(C)CC(=O)Nc1ccc(Cl)cn1` [Compound Y206-6252], the remaining activity at 2300 µM worked out at 95%.
As for `O=c1cc(N2CCOCC2)cn[nH]1` [FF20-1495], the remaining activity at 3000 µM under setting [1] turned out to be 88%.
`COc1ccc(OC)c(-c2oc3ccccc3c(=O)c2O)c1` [Compound 6877-0609]: the remaining activity at 1700 µM came to 102%.
For `Nc1cccc2cccc(S(=O)(=O)O)c12` [Compound 1091-0114], the remaining activity at 2200 µM turned out to be 81%.
Consider `CC1=NCCC1` [FLD186], for which, under setting [1], the remaining activity at 2500 µM stood at 71%.
For the compound `O=C(NC1CCCC1)[C@H]1CCCC[C@H]1C(=O)O` [Compound Y203-9770], the remaining activity at 2100 µM came out at 91%.
Take `N#Cc1ccccn1` [FLD180]: the remaining activity at 2500 µM under setting [1] turned out to be 98%.
For the compound `CC(C)C(=O)N1CC(n2cc(C(=O)N(C)C)nn2)C1` [Compound S724-0111], the remaining activity at 2300 µM (residual activity) amounted to 97%.
In the case of `Cc1ccc(Cn2ccnc2C(N)=O)cc1` [Compound Z601-5404], the remaining activity at 2600 µM (tested concentration 2.6 mM) was 99%.
Turning to `Cc1ccc2ccc(S(=O)(=O)O)cc2c1` [Compound 1326-0466], the remaining activity at 2200 µM is 101%.
For `Nc1n[nH]c(CC(=O)O)n1` [Compound 8010-3882], the remaining activity at 3500 µM (tested concentration 3.5 mM) was 100%.
With `Cc1cc(F)c(F)c(C(=O)n2ccnc2)c1Cl` [Compound 8009-4247], the remaining activity at 2100 µM was determined as 102%.
In the case of `O=S(=O)(Nc1ccccc1Cl)c1ccc(F)cc1` [Compound 1763-0763], the remaining activity at 1900 µM (residual activity) was determined as 115%.
For the compound `Cc1ccc(C(=O)N(C)CC2(C)CCOCC2)cn1` [Compound P970-1095], the remaining activity at 2300 µM (residual activity) was 94%.
Take `COc1nonc1O` [Compound 8019-4549]: the remaining activity at 4300 µM (tested concentration 4.3 mM) was found to be 93%.
Regarding `CN(Cc1ccccc1)c1c(-c2ccccc2)c(=O)c1=O` [Compound E470-0301], the remaining activity at 1800 µM stood at 103%.
With `COCCn1c(CCC(=O)O)ccc1-c1ccccc1` [Compound D135-0001], the remaining activity at 1800 µM turned out to be 90%.
On to `COC(=O)CCC(=O)Nc1ccc(S(N)(=O)=O)cc1` [Compound 1699-0796], for which the remaining activity at 1700 µM stood at 89%.
With `O=[N+]([O-])c1ccc(O)c(Cl)c1` [FLD092], the remaining activity at 2500 µM under setting [1] was found to be 97%.
